In patent publication EP1161438B1, “6-O-SUBSTITUTED MACROLIDES HAVING ANTIBACTERIAL ACTIVITY” (ABBOTT LABORATORIES, priority 1999, dated 2000):

Tests used:
Test in all cases: Agar dilution antibacterial MIC assay
Format in all cases: cell-based
Candida albicans CCH 442 = details: organism code TT, BHI agar, 35-37 °C, 20 to 24 hours, unit assumed
Description: (§1) Representative compounds of the present invention were assayed in vitro for antibacterial activity as follows: Twelve petri dishes containing successive aqueous dilutions of the test compound mixed with 10 mL of sterilized Brain Heart Infusion (BHI) agar (Difco 0418-01-5) were prepared. Each plate was inoculated with 1:100 (or 1:10 for slow-growing strains, such as Micrococcus and Streptococcus) dilutions of up to 32 different microorganisms, using a Steers replicator block. […] In addition, a control plate, using BHI agar containing no test compound, was prepared and incubated at the beginning and end of each test.
(§2) An additional plate containing a compound having known susceptibility patterns for the organisms being tested and belonging to the same antibiotic class as the test compound was also prepared and incubated as a further control, as well as to provide test-to-test comparability.
(§3) After incubation, each plate was visually inspected. The minimum inhibitory concentration (MIC) was defined as the lowest concentration of drug yielding no growth, a slight haze, or sparsely isolated colonies on the inoculum spot as compared to the growth control.

[1] = test system: Enterococcus faecium ATCC 8043; details: organism code II, BHI agar, 35-37 °C, 20 to 24 hours, unit assumed
Description: as §1, §2, §3

Escherichia coli DC-2 = details: organism code SS, BHI agar, 35-37 °C, 20 to 24 hours, unit assumed
Description: as §1, §2, §3

Escherichia coli JUHL = details: organism code QQ, BHI agar, 35-37 °C, 20 to 24 hours, unit assumed
Description: as §1, §2, §3

Escherichia coli SS = details: organism code RR, BHI agar, 35-37 °C, 20 to 24 hours, unit assumed
Description: as §1, §2, §3

[2] = test system: Haemophilis Influenzae DILL AMP R; details: organism code WW, BHI agar, 35-37 °C, 20 to 24 hours, unit assumed
Description: as §1, §2, §3

[3] = test system: Micrococcus luteus ATCC 4698; details: organism code PP, BHI agar, 35-37 °C, 20 to 24 hours, unit assumed
Description: as §1, §2, §3

[4] = test system: Micrococcus luteus ATCC 9341; details: organism code OO, BHI agar, 35-37 °C, 20 to 24 hours, unit assumed
Description: as §1, §2, §3

[5] = test system: Mycobacterium smegmatis ATCC 114; details: organism code UU, BHI agar, 35-37 °C, 20 to 24 hours, unit assumed
Description: as §1, §2, §3

[6] = test system: Nocardia Asteroides ATCC9970; details: organism code VV, BHI agar, 35-37 °C, 20 to 24 hours, unit assumed
Description: as §1, §2, §3

[7] = test system: Staphylococcus aureus 1775; details: organism code GG, BHI agar, 35-37 °C, 20 to 24 hours, unit assumed
Description: as §1, §2, §3

[8] = test system: Staphylococcus aureus A-5278; details: organism code CC, BHI agar, 35-37 °C, 20 to 24 hours, unit assumed
Description: as §1, §2, §3

[9] = test system: Staphylococcus aureus A5177; details: organism code BB, BHI agar, 35-37 °C, 20 to 24 hours, unit assumed
Description: as §1, §2, §3

[10] = test system: Staphylococcus aureus ATCC 6538P; details: organism code AA, BHI agar, 35-37 °C, 20 to 24 hours, unit assumed
Description: as §1, §2, §3

[11] = test system: Staphylococcus aureus CMX 553; details: organism code FF, BHI agar, 35-37 °C, 20 to 24 hours, unit assumed
Description: as §1, §2, §3

[12] = test system: Staphylococcus aureus CMX 642A; details: organism code DD, BHI agar, 35-37 °C, 20 to 24 hours, unit assumed
Description: as §1, §2, §3

[13] = test system: Staphylococcus aureus NCTC10649M; details: organism code EE, BHI agar, 35-37 °C, 20 to 24 hours, unit assumed
Description: as §1, §2, §3

[14] = test system: Staphylococcus epidermidis 3519; details: organism code HH, BHI agar, 35-37 °C, 20 to 24 hours, unit assumed
Description: as §1, §2, §3

[15] = test system: Streptococcus Pneumonia 5649; details: organism code ZZA, BHI agar, 35-37 °C, 20 to 24 hours, unit assumed
Description: as §1, §2, §3

[16] = test system: Streptococcus Pneumonia 5979; details: organism code ZZ, BHI agar, 35-37 °C, 20 to 24 hours, unit assumed
Description: as §1, §2, §3

[17] = test system: Streptococcus Pneumonia ATCC6303; details: organism code XX, BHI agar, 35-37 °C, 20 to 24 hours, unit assumed
Description: as §1, §2, §3

[18] = test system: Streptococcus Pneumonia GYR 1171; details: organism code YY, BHI agar, 35-37 °C, 20 to 24 hours, unit assumed
Description: as §1, §2, §3

[19] = test system: Streptococcus agalactiae CMX 508; details: organism code KK, BHI agar, 35-37 °C, 20 to 24 hours, unit assumed
Description: as §1, §2, §3

[20] = test system: Streptococcus bovis A-5169; details: organism code JJ, BHI agar, 35-37 °C, 20 to 24 hours, unit assumed
Description: as §1, §2, §3

[21] = test system: Streptococcus pyogenes 930; details: organism code MM, BHI agar, 35-37 °C, 20 to 24 hours, unit assumed
Description: as §1, §2, §3

[22] = test system: Streptococcus pyogenes EES61; details: organism code LL, BHI agar, 35-37 °C, 20 to 24 hours, unit assumed
Description: as §1, §2, §3

[23] = test system: Streptococcus pyogenes PIU 2548; details: organism code NN, BHI agar, 35-37 °C, 20 to 24 hours, unit assumed
Description: as §1, §2, §3

Q: With `CC[C@H]1OC(=O)[C@H](C)C(=O)[C@H](C)[C@@H](O[C@@H]2O[C@H](C)C[C@H](N(C)C)[C@H]2O)[C@](C)(OCC#Cc2ccc(-c3cccnc3)s2)C[C@@H](C)C(=O)[C@H](C)[C@H]2NC(=O)O[C@@]21C` [Example 2, Compound of Formula I: R^b is H, L is -C(O)-, T is -NH-, R is-(CH2)-C≡C-(5-(3-pyridyl)-2-thienyl)] as the molecule, how does the MIC (Candida albicans CCH 442) read?
A: > 100 µg/mL

Q: And the MIC [1]?
A: 0.05 µg/mL

Q: What about the MIC (Escherichia coli DC-2) of the same molecule?
A: 25 µg/mL

Q: What about the MIC (Escherichia coli JUHL) of the same molecule?
A: 25 µg/mL

Q: What about the MIC (Escherichia coli SS) of the same molecule?
A: 0.1 µg/mL

Q: And the MIC [2]?
A: 2 µg/mL

Q: And the MIC [3]?
A: 0.1 µg/mL

Q: What about the MIC [4] of the same molecule?
A: ≤ 0.005 µg/mL

Q: What about the MIC [5] of the same molecule?
A: 0.2 µg/mL

Q: And the MIC [6]?
A: 0.05 µg/mL

Q: What about the MIC [7] of the same molecule?
A: > 100 µg/mL

Q: What about the MIC [8] of the same molecule?
A: > 100 µg/mL

Q: And the MIC [9]?
A: 0.05 µg/mL

Q: And the MIC [10]?
A: 0.05 µg/mL

Q: What about the MIC [11] of the same molecule?
A: 0.05 µg/mL

Q: What about the MIC [12] of the same molecule?
A: 0.05 µg/mL

Q: What about the MIC [13] of the same molecule?
A: 0.05 µg/mL

Q: What about the MIC [14] of the same molecule?
A: 0.05 µg/mL

Q: And the MIC [15]?
A: 0.12 µg/mL

Q: And the MIC [16]?
A: 0.25 µg/mL

Q: What about the MIC [17] of the same molecule?
A: 0.03 µg/mL

Q: What about the MIC [18] of the same molecule?
A: 0.03 µg/mL

Q: And the MIC [19]?
A: ≤ 0.005 µg/mL

Q: And the MIC [20]?
A: ≤ 0.005 µg/mL

Q: What about the MIC [21] of the same molecule?
A: 3.1 µg/mL

Q: And the MIC [22]?
A: 0.01 µg/mL

Q: And the MIC [23]?
A: 0.1 µg/mL
